2 compounds from paper doi:10.1101/2024.08.13.607785v1 (biorxiv, 2024) can be followed below.

Common to all, as to test: biochemical
In assay [1] the target is T1, Interleukin-1 receptor-associated kinase 3 ; IRAK3 ; Q9Y616 (Homo sapiens, UniProt Q9Y616).
T1 sequence (Q9Y616 1-596): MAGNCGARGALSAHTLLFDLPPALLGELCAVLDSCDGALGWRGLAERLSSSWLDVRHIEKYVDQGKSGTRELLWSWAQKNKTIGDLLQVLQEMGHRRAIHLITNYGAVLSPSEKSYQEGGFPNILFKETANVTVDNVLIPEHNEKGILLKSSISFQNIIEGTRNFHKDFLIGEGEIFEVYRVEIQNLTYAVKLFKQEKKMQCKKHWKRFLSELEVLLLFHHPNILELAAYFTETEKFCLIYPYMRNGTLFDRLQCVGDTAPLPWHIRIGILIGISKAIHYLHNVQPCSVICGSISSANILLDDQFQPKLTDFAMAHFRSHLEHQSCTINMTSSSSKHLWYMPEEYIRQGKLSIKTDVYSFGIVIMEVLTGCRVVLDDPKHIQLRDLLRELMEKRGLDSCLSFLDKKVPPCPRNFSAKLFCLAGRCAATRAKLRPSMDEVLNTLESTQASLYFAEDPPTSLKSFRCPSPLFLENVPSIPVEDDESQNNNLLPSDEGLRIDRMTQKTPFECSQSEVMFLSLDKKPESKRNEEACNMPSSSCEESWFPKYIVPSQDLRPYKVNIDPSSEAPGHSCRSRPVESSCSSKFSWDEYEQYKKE
Also on record: species or system mixed lysate of K562, MV4-11, THP-1, NCI-H1155.

The target of assay [2] is Glycogen synthase kinase-3 alpha ; GSK3A ; P49840 (Homo sapiens, UniProt P49840). Set-up: species or system mixed lysate of K562, MV4-11, THP-1, NCI-H1155.
Sequence of Glycogen synthase kinase-3 alpha ; GSK3A ; P49840 (P49840 whole entry): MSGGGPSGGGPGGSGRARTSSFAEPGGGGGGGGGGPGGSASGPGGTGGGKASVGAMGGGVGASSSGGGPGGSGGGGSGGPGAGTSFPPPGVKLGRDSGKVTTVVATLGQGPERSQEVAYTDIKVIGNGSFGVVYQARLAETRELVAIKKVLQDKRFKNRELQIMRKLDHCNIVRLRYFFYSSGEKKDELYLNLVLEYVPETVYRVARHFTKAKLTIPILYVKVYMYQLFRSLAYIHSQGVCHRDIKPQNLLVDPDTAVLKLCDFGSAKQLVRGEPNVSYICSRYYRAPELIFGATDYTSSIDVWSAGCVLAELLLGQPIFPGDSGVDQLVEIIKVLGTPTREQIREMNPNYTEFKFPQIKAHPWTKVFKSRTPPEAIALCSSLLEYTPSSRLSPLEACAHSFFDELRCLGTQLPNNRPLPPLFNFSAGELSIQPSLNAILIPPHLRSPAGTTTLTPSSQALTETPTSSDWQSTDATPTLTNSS
The target in assay [3] is T2, Cyclin-dependent kinase 19 ; CDK19 ; Q9BWU1 (Homo sapiens, UniProt Q9BWU1). Also on record: species or system mixed lysate of K562, MV4-11, THP-1, NCI-H1155.
T2 sequence (Q9BWU1 whole entry, one chain of several): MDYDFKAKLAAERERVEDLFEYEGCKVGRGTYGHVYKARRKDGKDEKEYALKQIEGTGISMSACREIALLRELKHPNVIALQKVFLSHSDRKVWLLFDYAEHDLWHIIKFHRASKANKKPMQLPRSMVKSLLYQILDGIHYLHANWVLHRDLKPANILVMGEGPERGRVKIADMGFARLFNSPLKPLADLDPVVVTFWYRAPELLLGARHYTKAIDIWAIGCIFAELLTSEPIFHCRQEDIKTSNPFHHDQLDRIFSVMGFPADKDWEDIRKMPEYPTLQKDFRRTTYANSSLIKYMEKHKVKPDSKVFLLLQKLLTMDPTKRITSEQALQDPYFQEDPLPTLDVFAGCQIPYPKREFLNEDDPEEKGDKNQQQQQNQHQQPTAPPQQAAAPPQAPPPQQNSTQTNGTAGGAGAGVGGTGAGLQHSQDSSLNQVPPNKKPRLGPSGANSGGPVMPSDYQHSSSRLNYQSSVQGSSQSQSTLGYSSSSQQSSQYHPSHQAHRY
Assay [4] concerns the target Calcium/calmodulin-dependent protein kinase kinase 1 ; CAMKK1 ; Q8N5S9 (Homo sapiens, UniProt Q8N5S9). Also on record: species or system human cell line lysate.
Assay [5] concerns the target Cyclin-dependent kinase 8 ; CDK8 ; P49336 (Homo sapiens, UniProt P49336). Also on record: species or system human cell line lysate.
Assay [6] concerns the target T1, Interleukin-1 receptor-associated kinase 3 ; IRAK3 ; Q9Y616. Also on record: species or system human cell line lysate.
In assay [7] the target is Cyclin-dependent kinase 13 ; CDK13 ; Q14004 (Homo sapiens, UniProt Q14004). Also on record: species or system human cell line lysate.
Sequence of Cyclin-dependent kinase 13 ; CDK13 ; Q14004 (Q14004 whole entry, one chain of several): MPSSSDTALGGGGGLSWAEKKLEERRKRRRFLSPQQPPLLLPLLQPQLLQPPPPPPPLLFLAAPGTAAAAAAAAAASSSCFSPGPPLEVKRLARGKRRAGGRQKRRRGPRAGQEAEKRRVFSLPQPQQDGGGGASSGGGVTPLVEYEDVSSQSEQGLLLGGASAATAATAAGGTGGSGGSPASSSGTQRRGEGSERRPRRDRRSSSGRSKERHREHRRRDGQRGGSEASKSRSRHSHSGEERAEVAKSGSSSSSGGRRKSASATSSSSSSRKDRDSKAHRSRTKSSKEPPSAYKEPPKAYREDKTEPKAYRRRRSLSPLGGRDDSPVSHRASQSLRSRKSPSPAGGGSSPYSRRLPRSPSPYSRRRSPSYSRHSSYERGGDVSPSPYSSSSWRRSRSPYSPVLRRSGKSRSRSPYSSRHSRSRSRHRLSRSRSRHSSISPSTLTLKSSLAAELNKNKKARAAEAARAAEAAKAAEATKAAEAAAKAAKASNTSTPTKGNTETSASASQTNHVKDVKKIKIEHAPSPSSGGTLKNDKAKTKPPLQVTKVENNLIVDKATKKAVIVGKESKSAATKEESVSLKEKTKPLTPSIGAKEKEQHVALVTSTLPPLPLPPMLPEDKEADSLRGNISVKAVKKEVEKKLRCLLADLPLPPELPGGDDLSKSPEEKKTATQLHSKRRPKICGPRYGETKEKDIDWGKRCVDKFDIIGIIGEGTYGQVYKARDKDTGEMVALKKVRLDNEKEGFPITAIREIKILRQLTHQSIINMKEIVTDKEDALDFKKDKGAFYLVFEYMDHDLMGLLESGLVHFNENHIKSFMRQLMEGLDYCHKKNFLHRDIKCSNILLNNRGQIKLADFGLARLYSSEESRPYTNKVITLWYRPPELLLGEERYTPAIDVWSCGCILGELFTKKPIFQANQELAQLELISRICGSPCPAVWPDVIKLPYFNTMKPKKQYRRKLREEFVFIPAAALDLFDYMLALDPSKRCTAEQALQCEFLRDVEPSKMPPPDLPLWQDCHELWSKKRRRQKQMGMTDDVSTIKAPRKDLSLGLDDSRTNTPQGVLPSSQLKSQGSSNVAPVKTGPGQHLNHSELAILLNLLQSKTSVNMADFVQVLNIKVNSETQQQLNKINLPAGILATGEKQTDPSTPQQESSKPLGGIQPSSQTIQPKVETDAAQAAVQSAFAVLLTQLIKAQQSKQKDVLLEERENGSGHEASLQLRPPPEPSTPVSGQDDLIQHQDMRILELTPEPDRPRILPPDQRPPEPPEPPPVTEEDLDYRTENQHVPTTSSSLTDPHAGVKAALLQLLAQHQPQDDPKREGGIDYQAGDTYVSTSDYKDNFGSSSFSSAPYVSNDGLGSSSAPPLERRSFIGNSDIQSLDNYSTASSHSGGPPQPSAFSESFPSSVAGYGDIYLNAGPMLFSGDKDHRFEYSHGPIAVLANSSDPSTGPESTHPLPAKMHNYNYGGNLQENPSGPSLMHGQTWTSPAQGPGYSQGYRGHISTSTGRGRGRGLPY
Assay [8] addresses Non-receptor tyrosine-protein kinase TYK2 ; TYK2 ; P29597 (Homo sapiens, UniProt P29597). Also on record: species or system human cell line lysate.
For assay [9], the target named is Mast/stem cell growth factor receptor Kit ; KIT ; P10721 (Homo sapiens, UniProt P10721). Set-up: species or system human cell line lysate.
Sequence of Mast/stem cell growth factor receptor Kit ; KIT ; P10721 (P10721 whole entry, one chain of several): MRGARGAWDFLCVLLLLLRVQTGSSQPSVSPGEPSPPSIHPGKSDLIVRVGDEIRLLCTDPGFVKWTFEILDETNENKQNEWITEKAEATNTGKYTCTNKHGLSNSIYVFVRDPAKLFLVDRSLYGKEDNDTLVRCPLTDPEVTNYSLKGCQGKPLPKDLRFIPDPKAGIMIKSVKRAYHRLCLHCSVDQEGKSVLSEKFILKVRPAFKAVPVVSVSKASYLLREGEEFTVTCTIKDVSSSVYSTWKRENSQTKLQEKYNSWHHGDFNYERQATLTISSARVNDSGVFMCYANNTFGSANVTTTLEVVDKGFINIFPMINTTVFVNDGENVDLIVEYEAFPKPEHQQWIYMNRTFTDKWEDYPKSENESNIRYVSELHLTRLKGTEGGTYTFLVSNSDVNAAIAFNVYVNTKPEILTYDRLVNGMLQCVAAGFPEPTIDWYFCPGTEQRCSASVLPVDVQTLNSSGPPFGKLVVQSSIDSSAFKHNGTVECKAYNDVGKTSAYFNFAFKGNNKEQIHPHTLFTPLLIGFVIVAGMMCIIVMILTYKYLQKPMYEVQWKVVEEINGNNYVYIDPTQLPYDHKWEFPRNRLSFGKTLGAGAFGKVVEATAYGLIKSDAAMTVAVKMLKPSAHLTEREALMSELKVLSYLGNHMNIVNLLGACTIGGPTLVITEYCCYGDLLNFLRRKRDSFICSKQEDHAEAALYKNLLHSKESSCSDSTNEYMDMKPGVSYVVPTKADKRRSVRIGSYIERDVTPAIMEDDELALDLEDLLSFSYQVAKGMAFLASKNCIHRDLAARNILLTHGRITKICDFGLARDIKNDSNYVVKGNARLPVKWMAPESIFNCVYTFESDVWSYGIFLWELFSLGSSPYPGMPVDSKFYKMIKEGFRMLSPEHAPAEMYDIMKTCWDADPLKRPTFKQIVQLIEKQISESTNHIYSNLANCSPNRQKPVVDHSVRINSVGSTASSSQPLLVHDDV
The target of assay [10] is T3, Cyclin-dependent kinase-like 5 ; CDKL5 ; O76039 (Homo sapiens, UniProt O76039).
T3 sequence (O76039 1-960): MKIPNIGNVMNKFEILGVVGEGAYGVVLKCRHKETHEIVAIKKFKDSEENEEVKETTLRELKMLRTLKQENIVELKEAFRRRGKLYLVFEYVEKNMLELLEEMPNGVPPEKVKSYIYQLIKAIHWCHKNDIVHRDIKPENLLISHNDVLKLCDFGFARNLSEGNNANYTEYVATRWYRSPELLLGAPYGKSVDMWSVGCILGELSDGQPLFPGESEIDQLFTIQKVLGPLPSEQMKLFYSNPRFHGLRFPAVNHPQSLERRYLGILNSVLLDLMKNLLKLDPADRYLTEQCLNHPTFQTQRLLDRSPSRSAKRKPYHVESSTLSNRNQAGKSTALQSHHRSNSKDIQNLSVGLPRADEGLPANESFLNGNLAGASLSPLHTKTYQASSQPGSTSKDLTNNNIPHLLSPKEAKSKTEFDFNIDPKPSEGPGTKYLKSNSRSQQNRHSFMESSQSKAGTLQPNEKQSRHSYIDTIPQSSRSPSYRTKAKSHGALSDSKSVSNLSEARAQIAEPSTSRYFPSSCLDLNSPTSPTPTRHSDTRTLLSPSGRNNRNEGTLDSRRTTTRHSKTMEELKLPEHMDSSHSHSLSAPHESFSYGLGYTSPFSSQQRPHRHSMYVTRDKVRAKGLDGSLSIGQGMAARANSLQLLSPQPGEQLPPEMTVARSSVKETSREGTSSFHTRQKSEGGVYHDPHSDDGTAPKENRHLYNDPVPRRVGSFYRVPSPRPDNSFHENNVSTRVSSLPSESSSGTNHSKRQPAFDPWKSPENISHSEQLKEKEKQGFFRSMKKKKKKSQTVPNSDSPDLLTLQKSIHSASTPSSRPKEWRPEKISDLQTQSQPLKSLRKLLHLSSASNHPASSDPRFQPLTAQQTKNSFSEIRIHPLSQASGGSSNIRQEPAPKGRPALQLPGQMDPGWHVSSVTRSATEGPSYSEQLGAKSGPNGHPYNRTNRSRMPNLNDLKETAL
Also on record: species or system human cell line lysate.

The target of assay [11] is T2, Cyclin-dependent kinase 19 ; CDK19 ; Q9BWU1. Set-up: species or system human cell line lysate.
Assay [12] concerns the target Cyclin-dependent kinase 4 ; CDK4 ; P11802 (Homo sapiens, UniProt P11802). Set-up: species or system human cell line lysate.
The mark [13] stands for this setting: read-out: BAY-1143572 (10 µM) / %Intensity relative to DMSO.
The mark [14] stands for this setting: read-out: BAY-1251152 (10 µM) / %Intensity relative to DMSO.

pIC50: −log10 of the molar value. Read-outs that look alike come from different tables or passages of the source. Bounds are passed on as bounds.

Sequence of Non-receptor tyrosine-protein kinase TYK2 ; TYK2 ; P29597 (P29597 whole entry): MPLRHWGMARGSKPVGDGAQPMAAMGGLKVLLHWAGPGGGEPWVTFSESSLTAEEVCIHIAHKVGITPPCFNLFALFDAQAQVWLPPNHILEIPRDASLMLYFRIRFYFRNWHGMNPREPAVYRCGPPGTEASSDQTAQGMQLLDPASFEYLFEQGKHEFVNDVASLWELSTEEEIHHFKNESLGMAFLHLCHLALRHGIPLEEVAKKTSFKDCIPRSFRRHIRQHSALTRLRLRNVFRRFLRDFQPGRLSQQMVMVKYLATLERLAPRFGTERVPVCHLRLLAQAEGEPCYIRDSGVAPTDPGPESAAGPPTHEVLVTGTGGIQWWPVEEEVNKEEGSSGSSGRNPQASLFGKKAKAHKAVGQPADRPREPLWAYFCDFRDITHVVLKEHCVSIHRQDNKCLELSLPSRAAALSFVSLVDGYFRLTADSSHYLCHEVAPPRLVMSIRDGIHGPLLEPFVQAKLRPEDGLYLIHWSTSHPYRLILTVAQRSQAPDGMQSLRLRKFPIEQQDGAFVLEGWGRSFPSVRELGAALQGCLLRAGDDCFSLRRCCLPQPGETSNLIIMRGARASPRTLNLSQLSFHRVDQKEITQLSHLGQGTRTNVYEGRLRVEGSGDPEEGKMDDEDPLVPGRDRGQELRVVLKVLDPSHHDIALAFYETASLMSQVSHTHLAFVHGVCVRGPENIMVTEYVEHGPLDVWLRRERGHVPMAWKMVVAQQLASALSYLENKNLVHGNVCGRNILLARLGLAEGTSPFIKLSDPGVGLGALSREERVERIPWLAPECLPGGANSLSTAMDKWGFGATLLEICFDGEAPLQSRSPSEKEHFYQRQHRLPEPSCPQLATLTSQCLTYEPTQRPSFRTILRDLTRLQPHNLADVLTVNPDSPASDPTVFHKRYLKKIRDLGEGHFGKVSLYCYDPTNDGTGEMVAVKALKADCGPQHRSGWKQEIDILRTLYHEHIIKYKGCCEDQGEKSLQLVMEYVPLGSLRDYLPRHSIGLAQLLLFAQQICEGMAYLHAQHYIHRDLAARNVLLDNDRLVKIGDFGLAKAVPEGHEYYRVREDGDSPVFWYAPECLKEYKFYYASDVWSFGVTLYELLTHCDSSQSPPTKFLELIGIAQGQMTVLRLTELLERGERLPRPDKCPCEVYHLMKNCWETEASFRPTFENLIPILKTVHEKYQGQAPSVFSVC
Sequence of Cyclin-dependent kinase 4 ; CDK4 ; P11802 (P11802 whole entry, one chain of several): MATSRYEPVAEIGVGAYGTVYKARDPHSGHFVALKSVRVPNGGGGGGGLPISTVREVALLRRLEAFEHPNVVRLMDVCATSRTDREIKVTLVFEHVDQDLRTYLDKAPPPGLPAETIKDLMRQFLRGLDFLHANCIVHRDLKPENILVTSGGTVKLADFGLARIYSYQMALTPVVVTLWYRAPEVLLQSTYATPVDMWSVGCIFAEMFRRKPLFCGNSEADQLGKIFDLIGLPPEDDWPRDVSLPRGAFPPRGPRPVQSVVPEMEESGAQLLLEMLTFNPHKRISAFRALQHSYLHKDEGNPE

The term pIC50 denotes −log10 of the IC50, conventionally taken in molar units. As to `COc1cc(F)ccc1-c1ncnc(Nc2cccc(C[S@](C)(=N)=O)c2)n1` [BAY-1143572], the remaining activity at 10 µM in assay [1] (setting [13]) is 24%; in assay [2] (setting [13]) it was 3.48%; in assay [3] (setting [13]), 97.8%. The pIC50 is 6.42 in assay [4]; less than 5.00 in assay [5]; 5.53 in assay [6]; less than 5.00 in [7]; 5.52 in assay [8]; 6.19 in assay [9]. Also, the pIC50 in assay [10] was 5.47; in assay [11], less than 5.00; in assay [12], less than 5.00.
Turning to `COc1cc(F)ccc1-c1cc(Nc2cc(CS(C)(=N)=O)ccn2)ncc1F` (stereo not drawn) [BAY-1251152], the remaining activity at 10 µM in assay [1] (setting [14]) was 86.2%; in assay [2] (setting [14]), 5.28%; in assay [3] (setting [14]), 90.5%. For the same compound, the pIC50 in assay [4] is 6.52; in assay [5], less than 5.00; in assay [6] it was less than 5.00; in [7], less than 5.00; in [8], less than 5.00; in [9], less than 5.00. Further, the pIC50 in [10], in [11] and in assay [12] was less than 5.00 in each case.
